Values of other authors in patent US20130171256A1 (CIMA LABS Inc., priority 2010, published 2013).

Legend:
Conditions in all cases: preclinical studies
[1] = system: neuronal norepinephrine reuptake
dopamine reuptake = system: dopamine reuptake
[2] = system: neuronal serotonin reuptake

Row | Structure (SMILES) | inhibition of neuronal norepinephrine reuptake [1] | inhibition of dopamine reuptake (dopamine reuptake) | inhibition of neuronal serotonin reuptake [2]
1 | COc1ccc(C(CN(C)C)C2(O)CCCCC2)cc1 (centres unmarked) [Venlafaxine] | potent inhibitors | weak inhibitors | –
2 | CN(C)CC(c1ccc(O)cc1)C1(O)CCCCC1 (centres unmarked) [O-desmethylvenlafaxine] | potent inhibitors | weak inhibitors | potent inhibitors
